Results on 4 compounds are retold here after US20260070945A1, “MACROCYCLIC IMMUNOMODULATORS” (Bristol-Myers Squibb Company, priority 2022, published 2026).

Where a SMILES comes first, the peptide text is derived from it. Bridges are numbered along the chain shown (N, C = ends). [ ]: non-standard residue; d: D form. The star is where a group is joined. Bip = N[C@@H](Cc1ccc(-c2ccccc2)cc1)C(=O)O; Phe(3-Me) = Cc1cccc(C[C@H](N)C(=O)O)c1; Gly(decyl) = CCCCCCCCCC[C@H](N)C(=O)O; Cha = N[C@@H](CC1CCCCC1)C(=O)O; 12Ado = NCCCCCCCCCCCC(=O)O; Carboxymethyl = O=C(O)C*; NMeA = CN[C@@H](C)C(=O)O; Aun = NCCCCCCCCCCC(=O)O; Dab = NCC[C@H](N)C(=O)O; AEEA = NCCOCCOCC(=O)O; Aoc = NCCCCCCCC(=O)O

T1 sequence (Q15116 25-288): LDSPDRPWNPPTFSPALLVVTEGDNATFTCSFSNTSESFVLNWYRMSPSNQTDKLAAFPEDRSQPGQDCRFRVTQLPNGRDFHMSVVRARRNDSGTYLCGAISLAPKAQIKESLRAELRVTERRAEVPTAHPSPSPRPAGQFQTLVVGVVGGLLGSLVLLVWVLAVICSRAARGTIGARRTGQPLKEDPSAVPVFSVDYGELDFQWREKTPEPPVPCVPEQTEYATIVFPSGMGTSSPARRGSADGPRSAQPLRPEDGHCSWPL

This assay addresses T1, PD-1/PD-L1 interaction (PE-labeled human PD-L1-Ig binding to Jurkat cell line over-expressing human PD-1) (Homo sapiens, UniProt Q15116).
T1 construct: expressed in transfected cells; host or cells: Jurkat
The experiment in a line: Jurkat-PD-1 Cell Binding High-Content Screening Assay (CBA). The note with it: PE-labeled PD-L1-Ig 20 nM final, Jurkat-hPD-1 cells; read-out: Jurkat HPD1 PDL1 IC50. A digest of the protocol:
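Read-out: high-content imaging of cell-bound PE fluorescence, with Hoechst 33342 nuclear counterstain after paraformaldehyde fixation. Before labeled ligand (20 nM final, 1 h) was added, compound sat on the cells for 2 h at 37 °C in DMEM/10% FCS.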
The IC50 is the concentration at which inhibition is half-maximal. `CCCCCCCCCC[C@@H]1NC(=O)[C@H](C(C)C)NC(=O)[C@H](CC2CCCCC2)NC(=O)[C@H](CCN)NC(=O)[C@@H](CC(C)C)NC(=O)[C@H](C)N(C)C(=O)[C@H](Cc2ccc(OCC(=O)O)cc2)NC(=O)[C@H](Cc2ccc(-c3ccccc3)cc2)NC(=O)[C@H](Cc2ccc(OCC(=O)O)cc2)NC(=O)[C@H](Cc2cccc(C)c2)NC(=O)[C@H](CC(=O)O)NC(=O)[C@H](Cc2ccc(OCC(=O)O)cc2)NC(=O)[C@H]([C@@H](C)O)NC(=O)CSC[C@@H](C(=O)N[C@@H](CCN)C(=O)NCCOCCOCC(=O)NCCCCCCCCCCCC(=O)O)NC1=O` [Example 2673] ({CH2CO}-TY(Carboxymethyl)D[Phe(3-Me)]Y(Carboxymethyl)[Bip]Y(Carboxymethyl)[NMeA][dL][Dab][Cha]V[Gly(decyl)]C[Dab][AEEA][12Ado]-OH; thioether N-14): the IC50 was 90.3 nM.

Turning to `Cc1cccc(C[C@@H]2NC(=O)[C@H](CC(=O)O)NC(=O)[C@H](Cc3ccc(OCC(=O)O)cc3)NC(=O)[C@H]([C@@H](C)O)NC(=O)CSC[C@@H](C(=O)N[C@@H](CCN)C(=O)NCCOCCOCC(=O)NCCCCCCCCCCCC(=O)O)NC(=O)[C@H](Cc3ccc(-c4ccccc4)cc3)NC(=O)[C@H](C(C)C)NC(=O)[C@H](CC3CCCCC3)NC(=O)[C@H](CCN)NC(=O)[C@@H](CC(C)C)NC(=O)[C@H](C)N(C)C(=O)[C@H](Cc3ccc(OCC(=O)O)cc3)NC(=O)[C@H](Cc3ccc(-c4ccccc4)cc3)NC(=O)[C@H](Cc3ccc(OCC(=O)O)cc3)NC2=O)c1` [Example 2674] ({CH2CO}-TY(Carboxymethyl)D[Phe(3-Me)]Y(Carboxymethyl)[Bip]Y(Carboxymethyl)[NMeA][dL][Dab][Cha]V[Bip]C[Dab][AEEA][12Ado]-OH; thioether N-14), the IC50 amounted to 21.3 nM. `CC(=O)NCC[C@H](NC(=O)[C@@H]1CSCC(=O)N[C@@H]([C@@H](C)O)C(=O)N[C@@H](Cc2ccc(OCC(=O)O)cc2)C(=O)N[C@@H](CC(=O)O)C(=O)N[C@@H](Cc2cccc(C)c2)C(=O)N[C@@H](Cc2ccc(OCC(=O)O)cc2)C(=O)N[C@@H](Cc2ccc(-c3ccccc3)cc2)C(=O)N[C@@H](Cc2ccc(OCC(=O)O)cc2)C(=O)N(C)[C@@H](C)C(=O)N[C@H](CC(C)C)C(=O)N[C@@H](CCNC(C)=O)C(=O)N[C@@H](CC2CCCCC2)C(=O)N[C@@H](C(C)C)C(=O)N[C@@H](CCC(=O)O)C(=O)N1)C(=O)NCCCCCCCC(=O)NCCCCCCCCCCCC(=O)O` [Example 2676] ({CH2CO}-TY(Carboxymethyl)D[Phe(3-Me)]Y(Carboxymethyl)[Bip]Y(Carboxymethyl)[NMeA][dL][Dab](Ac)[Cha]VEC[Dab](Ac)[Aoc][12Ado]-OH; thioether N-14): the IC50 came out at 503 nM.

`Cc1cccc(C[C@@H]2NC(=O)[C@H](CC(=O)O)NC(=O)[C@H](Cc3ccc(OCC(=O)O)cc3)NC(=O)[C@H]([C@@H](C)O)NC(=O)CSC[C@@H](C(=O)N[C@@H](CCN)C(=O)NCCCCCCCCCCCC(=O)NCCCCCCCCCCC(=O)O)NC(=O)[C@H](CCC(=O)O)NC(=O)[C@H](C(C)C)NC(=O)[C@H](CC3CCCCC3)NC(=O)[C@H](CCN)NC(=O)[C@@H](CC(C)C)NC(=O)[C@H](C)N(C)C(=O)[C@H](Cc3ccc(OCC(=O)O)cc3)NC(=O)[C@H](Cc3ccc(-c4ccccc4)cc3)NC(=O)[C@H](Cc3ccc(OCC(=O)O)cc3)NC2=O)c1` [Example 2679] ({CH2CO}-TY(Carboxymethyl)D[Phe(3-Me)]Y(Carboxymethyl)[Bip]Y(Carboxymethyl)[NMeA][dL][Dab][Cha]VEC[Dab][12Ado][Aun]-OH; thioether N-14): the half-inhibitory concentration (IC50) was determined as 12.2 nM.
